Assay [1] concerns TNFα. As to the kind of experiment: IRAK4 Monocyte TNFα Cell Based Assay. The following applies: Monocyte; cryopreserved human monocytes, 50 pg/ml LPS, compound 1 hour pre-treatment, 4 hours stimulation, TNFα by TR-FRET. As to the method:
IRAK4 Monocyte TNFα Cell Based Assay Procedure:
The cell suspension was then plated at a density of 5,000 cells/well onto black 384 well Greiner clear bottom plates. Plates were pre-spotted with test compounds and serially diluted in DMSO where 40 nL/well were delivered using the Echo 550 acoustic liquid dispenser (Labcyte®) for a final DMSO concentration of 0.1%. Plated cells were treated with compound for 1 hour at 37° C. Cells were then stimulated with 50 pg/ml of LPS (Sigma) excluding outside columns of plate used for unstimulated cell control wells. Cells were incubated for an additional 4 hours at 37° C. Cells were then spun out of the media and 5 μl of sample were taken and analyzed for total TNFα content using the TR-FRET Human TNFα detection system (CisBio). This system utilizes two labeled antibodies (cryptate and XL665) that bind to two different epitopes of the TNFα molecule and produce FRET signal proportional to the concentration of TNFα in the sample. Detection antibodies are mixed 50:50 and 5 μL were dispensed into each well. Plates were covered with clear seals and incubated at room temp overnight. The following morning plates were read using an Envision 2103 Multilabeled reader (PerkinElmer) with excitation/emission/FRET emission at 340 nm/615 nm/665 nm, respectively. Fluorescence intensities at 615 nm and 665 nm emission wavelengths were expressed as a ratio (665 nm/615 nm). Percent of control was calculated as follows: % Control=100×(RatioSample−Ratio0% Stimulation)/(Ratio100% Stimulation−Ratio0% Stimulation)
where unstimulated cells (0% stimulation) were the negative control and stimulated cells (100% stimulation) were used as the positive control.

Assay [2] addresses IRAK4 (Homo sapiens (Human), UniProt Q9NWZ3). Nature of the assay: IRAK4 Biochemical Assay (TR-FRET/HTRF). The following applies: IRAK4 enzyme 0.75 nM, 500 μM ATP, 2 μM STK1 peptide, 120 min. As to the method:
IRAK4 Biochemical Assay Procedure:
IRAK4 enzyme (Carna Biosciences, Chuo-ku, Kobe, Japan) activity was measured by detecting phosphorylated peptide substrate formation using an antibody against the phosphorylated peptide substrate. This is a time-resolved fluorescence resonance energy transfer (TR-FRET) immunoassay, based on the STK1 KinEASE Assay (Cisbio, Bedford, Mass.). The assay was designed as a simple two-step, endpoint assay (a 5 μl enzyme reaction followed by 5 μl stop and detect Solution) performed in ProxiPlate-384 Plus plates (Perkin Elmer, Waltham, Mass.). Staurosporine, a non-selective kinase inhibitor was used as a positive control. Compounds diluted in DMSO were spotted into 384 well plates using a Labcyte® Echo 550 Liquid Handling System prior to addition of IRAK4 enzyme and peptide substrate. Reaction solutions were delivered using a Multi-Flo (Bio-Tek Instruments). The enzyme and peptide solution was incubated with compound for 15 minutes at room temp before the reaction was initiated by the addition of ATP. The standard 5 μl reaction mixture contained 500 μM ATP, 2 μM peptide (STK1 Peptide), 0.75 nM of IRAK4 in reaction buffer (50 mM HEPES, pH 7.0, 0.02% NaN3, 0.01% BSA, 0.1 mM Orthovanadate, 5 mM MgCl2, 0.025% NP-40, 1 mM DTT). After 120 min of incubation at room temperature, 5 μl of Stop and Detect Solution (1:100 Cryptate labeled anti-phosphorylated peptide antibody solution and 125 nM Tracer in a 50 mM HEPES pH 7.0 detection buffer containing sufficient EDTA) was added. The plate was then further incubated for 60 minutes at room temperature and read on Envision 2103 Multilabeled reader (PerkinElmer) with excitation/emission/FRET emission at 340 nm/615 nm/665 nm, respectively. Fluorescence intensities at 615 nm and 665 nm emission wavelengths were expressed as a ratio (665 nm/615 nm). Percentage of inhibition was calculated as below: % Inhibition=100×(RatioSample−Ratio0% Inhibition)/(Ratio100% Inhibition−Ratio0% Inhibition)
The 0% inhibition value comes from control wells lacking inhibitor. The 100% inhibition value comes from control wells containing a saturating amount of known inhibitor staurosporine.

pEC50, pIC50: −log10 of the molar value. A value given as a limit tells only on which side of the number the result lay.

Chain of IRAK4 (Q9NWZ3 whole entry): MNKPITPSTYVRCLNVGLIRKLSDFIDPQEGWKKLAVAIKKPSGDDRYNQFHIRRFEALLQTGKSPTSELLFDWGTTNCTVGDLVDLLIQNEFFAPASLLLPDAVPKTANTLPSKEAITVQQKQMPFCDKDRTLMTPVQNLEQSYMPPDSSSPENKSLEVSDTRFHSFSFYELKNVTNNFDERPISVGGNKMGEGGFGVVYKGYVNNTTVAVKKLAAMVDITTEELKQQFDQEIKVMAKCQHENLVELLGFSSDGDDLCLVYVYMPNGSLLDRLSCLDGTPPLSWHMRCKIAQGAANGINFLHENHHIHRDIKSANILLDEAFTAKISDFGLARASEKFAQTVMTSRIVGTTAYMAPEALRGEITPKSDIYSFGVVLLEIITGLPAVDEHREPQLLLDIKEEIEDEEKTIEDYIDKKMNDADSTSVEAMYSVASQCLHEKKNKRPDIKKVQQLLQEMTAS

In general, pEC50 refers to −log10 of the EC50, conventionally taken in molar units. Usually pIC50 stands for the negative decadic logarithm of the IC50, by convention in mol/L. For the compound `CC(C)(O)[C@H](F)CNC(=O)c1cnc(-c2ccc3cc(C#N)cnn23)cc1NC1CCC(c2ccncc2)CC1` (single isomer, unassigned) [Compound 56], in assay [1], the negative-log EC50 (pEC50) is 6.66. This compound had a negative logarithm of the IC50 (pIC50) in assay [2] of 8.05.

Consider `CC(C)(O)[C@H](F)CNC(=O)c1cnc(-c2ccc3cc(C#N)cnn23)cc1N[C@H]1CC[C@H](c2cn[nH]c2)CC1` [Compound 1, 4-(((1r,4R)-4-(1H-pyrazol-4-yl)cyclohexyl)amino)-6-(3-cyanopyrrolo[1,2-b]pyridazin-7-yl)-N-((R)-2-fluoro-3-hydroxy-3-methylbutyl)nicotinamide], for which the pEC50 in assay [1] was 8.40. This compound showed a pIC50 in assay [2] of more than 9.00.

Regarding `CC(C)(O)[C@H](F)CNC(=O)c1cnc(-c2ccc3cc(C#N)cnn23)cc1N[C@H]1CC[C@@H](c2cn[nH]c2)CC1` [Compound 2, 4-(((1s,4S)-4-(1H-pyrazol-4-yl)cyclohexyl)amino)-6-(3-cyanopyrrolo[1,2-b]pyridazin-7-yl)-N-((R)-2-fluoro-3-hydroxy-3-methylbutyl)nicotinamide], the negative-log EC50 (pEC50) in assay [1] was 7.18. This compound had a pIC50 in assay [2] of more than 9.00.

`CC(C)(O)[C@H](F)CNC(=O)c1cnc(-c2ccc3cc(C#N)cnn23)cc1N[C@H]1CC[C@H](c2cnn(C(F)F)c2)CC1` [Compound 3, 6-(3-cyanopyrrolo[1,2-b]pyridazin-7-yl)-4-(((1r,4R)-4-(1-(difluoromethyl)-1H-pyrazol-4-yl)cyclohexyl)amino)-N-((R)-2-fluoro-3-hydroxy-3-methylbutyl)nicotinamide]: the pEC50 in assay [1] was 8.05. Further, in assay [2], the negative-log IC50 (pIC50) was more than 9.00.

As to `CC(C)(O)[C@H](F)CNC(=O)c1cnc(-c2ccc3cc(C#N)cnn23)cc1N[C@H]1CC[C@H](c2cnn(C(F)(F)F)c2)CC1` [Compound 4, 6-(3-cyanopyrrolo[1,2-b]pyridazin-7-yl)-N-((R)-2-fluoro-3-hydroxy-3-methylbutyl)-4-(((1r,4R)-4-(1-(trifluoromethyl)-1H-pyrazol-4-yl)cyclohexyl)amino)nicotinamide], the pEC50 in assay [1] is 7.43. The negative-log IC50 (pIC50) in assay [2] was 8.52.

Regarding `CC(C)(O)[C@H](F)CNC(=O)c1cnc(-c2ccc3cc(C#N)cnn23)cc1N[C@H]1CC[C@H](c2cnn(CC(F)F)c2)CC1` [Compound 5, 6-(3-cyanopyrrolo[1,2-b]pyridazin-7-yl)-4-(((1r,4R)-4-(1-(2,2-difluoroethyl)-1H-pyrazol-4-yl)cyclohexyl)amino)-N-((R)-2-fluoro-3-hydroxy-3-methylbutyl)nicotinamide], in assay [1], the pEC50 was 7.66. Besides, in assay [2], the negative-log IC50 (pIC50) is more than 9.00.

Regarding `CC(C)(O)[C@H](F)CNC(=O)c1cnc(-c2ccc3cc(C#N)cnn23)cc1NC1CCC(c2cnn(CC(F)(F)F)c2)CC1` (stereo partly drawn) [Compound 6, (R)-6-(3-cyanopyrrolo[1,2-b]pyridazin-7-yl)-N-(2-fluoro-3-hydroxy-3-methylbutyl)-4-((4-(1-(2,2,2-trifluoroethyl)-1H-pyrazol-4-yl)cyclohexyl)amino)nicotinamide], the negative logarithm of the EC50 (pEC50) in assay [1] is 7.15.

`Cn1cc([C@H]2CC[C@H](Nc3cc(-c4ccc5cc(C#N)cnn45)ncc3C(=O)NC[C@@H](F)C(C)(C)O)CC2)cn1` [Compound 7, 6-(3-cyanopyrrolo[1,2-b]pyridazin-7-yl)-N-((R)-2-fluoro-3-hydroxy-3-methylbutyl)-4-(((1r,4R)-4-(1-methyl-1H-pyrazol-4-yl)cyclohexyl)amino)nicotinamide]: in assay [1], the pEC50 is 7.74. This compound gave a pIC50 in assay [2] of 9.00.

Regarding `CC(C)(O)[C@H](F)CNC(=O)c1cnc(-c2ccc3cc(C#N)cnn23)cc1N[C@H]1CC[C@H](c2ccn(C(F)F)n2)CC1` [Compound 8, 6-(3-cyanopyrrolo[1,2-b]pyridazin-7-yl)-4-(((1r,4R)-4-(1-(difluoromethyl)-1H-pyrazol-3-yl)cyclohexyl)amino)-N-((R)-2-fluoro-3-hydroxy-3-methylbutyl)nicotinamide], in assay [1], the pEC50 is 7.44. In assay [2], the pIC50 was 9.00.

As to `Cc1nn(C(F)F)cc1C1CCC(Nc2cc(-c3ccc4cc(C#N)cnn34)ncc2C(=O)NC[C@@H](F)C(C)(C)O)CC1` (stereo partly drawn) [Compound 9, (R)-6-(3-cyanopyrrolo[1,2-b]pyridazin-7-yl)-4-((4-(1-(difluoromethyl)-3-methyl-1H-pyrazol-4-yl)cyclohexyl)amino)-N-(2-fluoro-3-hydroxy-3-methylbutyl)nicotinamide], the pEC50 in assay [1] is 6.94. This compound also gave a pIC50 in assay [2] of 8.15.

`Cc1c(C2CCC(Nc3cc(-c4ccc5cc(C#N)cnn45)ncc3C(=O)NC[C@@H](F)C(C)(C)O)CC2)cnn1C(F)F` (stereo partly drawn) [Compound 10, (R)-6-(3-cyanopyrrolo[1,2-b]pyridazin-7-yl)-4-((4-(1-(difluoromethyl)-5-methyl-1H-pyrazol-4-yl)cyclohexyl)amino)-N-(2-fluoro-3-hydroxy-3-methylbutyl)nicotinamide]: the pEC50 in assay [1] is 7.26. This compound also gave a pIC50 in assay [2] of 8.10.

Consider `Cc1c([C@H]2CC[C@H](Nc3cc(-c4ccc5cc(C#N)cnn45)ncc3C(=O)NC[C@@H](F)C(C)(C)O)CC2)cnn1C(F)F` [Compound 11, 6-(3-cyanopyrrolo[1,2-b]pyridazin-7-yl)-4-(((1r,4R)-4-(1-(difluoromethyl)-5-methyl-1H-pyrazol-4-yl)cyclohexyl)amino)-N-((R)-2-fluoro-3-hydroxy-3-methylbutyl)nicotinamide], for which the pEC50 in assay [1] is 7.77. In addition, in assay [2], the pIC50 was 9.00.

Consider `CCn1cc([C@H]2CC[C@H](Nc3cc(-c4ccc5cc(C#N)cnn45)ncc3C(=O)NC[C@@H](F)C(C)(C)O)CC2)cn1` [Compound 12, 6-(3-cyanopyrrolo[1,2-b]pyridazin-7-yl)-4-(((1r,4R)-4-(1-ethyl-1H-pyrazol-4-yl)cyclohexyl)amino)-N-((R)-2-fluoro-3-hydroxy-3-methylbutyl)nicotinamide], for which the negative-log EC50 (pEC50) in assay [1] is 7.36. In assay [2], this compound gave a pIC50 of 8.70.

`CC(C)(O)[C@H](F)CNC(=O)c1cnc(-c2ccc3cc(C#N)cnn23)cc1N[C@H]1CC[C@H](c2cnn(CC3CC3)c2)CC1` [Compound 13, 6-(3-cyanopyrrolo[1,2-b]pyridazin-7-yl)-4-(((1r,4R)-4-(1-(cyclopropylmethyl)-1H-pyrazol-4-yl)cyclohexyl)amino)-N-((R)-2-fluoro-3-hydroxy-3-methylbutyl)nicotinamide]: the negative logarithm of the EC50 (pEC50) in assay [1] was 6.77. The compound further showed a negative-log IC50 (pIC50) in assay [2] of 8.70.

The compound `CC(C)(O)[C@H](F)CNC(=O)c1cnc(-c2ccc3cc(C#N)cnn23)cc1N[C@H]1CC[C@H](c2cc[nH]n2)CC1` [Compound 70, 4-(((1r,4R)-4-(1H-pyrazol-3-yl)cyclohexyl)amino)-6-(3-cyanopyrrolo[1,2-b]pyridazin-7-yl)-N-((R)-2-fluoro-3-hydroxy-3-methylbutyl)nicotinamide] showed a pIC50 in assay [2] of 9.09.

For the compound `CC(C)(O)[C@H](F)CNC(=O)c1cnc(-c2ccc3cc(C#N)cnn23)cc1N[C@H]1CC[C@@H](c2cc[nH]n2)CC1` [Compound 71, 4-(((1s,4S)-4-(1H-pyrazol-3-yl)cyclohexyl)amino)-6-(3-cyanopyrrolo[1,2-b]pyridazin-7-yl)-N-((R)-2-fluoro-3-hydroxy-3-methylbutyl)nicotinamide], the pIC50 in assay [2] was 8.50.

Turning to `CC(C)(O)[C@H](F)CNC(=O)c1cnc(-c2ccc3cc(C#N)cnn23)cc1N[C@H]1CC[C@H](c2cnn(C(F)F)n2)CC1` [Compound 75, 6-(3-cyanopyrrolo[1,2-b]pyridazin-7-yl)-4-(((1r,4R)-4-(2-(difluoromethyl)-2H-1,2,3-triazol-4-yl)cyclohexyl)amino)-N-((R)-2-fluoro-3-hydroxy-3-methylbutyl)nicotinamide], the pIC50 in assay [2] was 9.06.

Values taken from patent publication US11572362B2, “Pyrrolo[1,2-b]pyridazine derivatives” (Gilead Sciences, Inc., priority 2018, dated 2023).
